Measurements published in US8536196B2, “Substituted 1,3-dioxanes useful as PPAR modulators” (Evolva SA, priority 2007, dated 2013).

Legend:
[1] = molecular target: T1, full length human PPARgamma (hPPARg2) (Homo sapiens, UniProt P37231); experiment: Transactivation assay with full length human PPARgamma; format: cell-based
T1 construct: expressed in transfected cells
T1 sequence (P37231 1-505): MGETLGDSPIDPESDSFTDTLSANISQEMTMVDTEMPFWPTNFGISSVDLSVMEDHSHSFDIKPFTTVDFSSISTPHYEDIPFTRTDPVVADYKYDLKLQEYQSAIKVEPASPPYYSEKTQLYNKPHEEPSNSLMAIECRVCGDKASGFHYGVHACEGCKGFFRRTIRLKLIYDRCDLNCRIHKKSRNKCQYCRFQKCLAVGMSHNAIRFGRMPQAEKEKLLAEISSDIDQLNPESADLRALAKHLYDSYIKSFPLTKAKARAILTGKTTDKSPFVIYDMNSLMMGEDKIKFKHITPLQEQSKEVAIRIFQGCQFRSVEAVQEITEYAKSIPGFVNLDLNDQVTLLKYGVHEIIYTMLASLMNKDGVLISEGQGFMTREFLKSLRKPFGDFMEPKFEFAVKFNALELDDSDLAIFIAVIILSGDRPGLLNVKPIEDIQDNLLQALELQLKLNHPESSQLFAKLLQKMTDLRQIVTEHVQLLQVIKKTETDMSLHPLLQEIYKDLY
Protocol: When this assay was carried out essentially as described above but with the full length human PPARgamma rather than with the PPARgamma ligand binding domain, activation of full-length hPPARg2 was seen to 64% of the Avandia positive control (FIG. 3).

MEFs / 3T3-L1 = experiment: Adipocyte differentiation induction assay (Oil Red O staining); format: cell-based, mouse
Protocol: This example describes an assay for determining adipocyte differention. Compounds are tested to see whether they induce adipocyte differentiation and also to see whether they inhibit adipocyte differention.
MEFs were grown in AmnioMax basal medium (Gibco) supplemented with 7.5% Amniomax supplement C-100 (Gibco), 7.5% Fetal Bovine Serum (FBS), 2 mM Glutamine, 62.5 μg/ml penicillin and 100 μg/ml Streptomycin (growth medium). At confluence, MEFs were induced to differentiation in growth medium with the addition of 1 μM dexamethasone (Sigma) 0.5 mM isobutylmethylxanthine (Sigma), 5 μg/ml insulin (Sigma) and 10 μM test compound dissolved in DMSO or DMSO alone. Medium was subsequently renewed every 48 hrs with growth media supplemented with 5 μg/ml Insulin and ligand or DMSO.
Briefly, to test compounds as inducers of adipocyte differentiation, 3T3-L1 are grown to confluence in DMEM with 10% Calf serum (CS), typically in 24 well dishes. At 2 days post confluence (day 0), cells are induced to differentiate with DMEM supplemented with 10% fetal bovine serum (FBS), 1 μM dexamethasone and the test compound (01, 1 and 10 μM). BRL49653 (1.0 μM dissolved in 100% DMSO) is used as a positive control. After 48 h, the cells are re-fed with DMEM containing 10% FBS supplemented with the test compound or the positive control. From day 4, cells are grown in DMEM with 10% FBS and are changed every second day until day 8. At day 8, cells are stained with Oil Red O as described below.
Cells cultured as described above are used for Oil Red staining. Dishes are washed in PBS and cells were fixed in 3.7% paraformaldehyde for 1 h and stained with oil red O as described in (Hansen et al 1999). Oil red O solution stock solution is prepared by dissolving 0.5 g of Oil Red O (Sigma) in 100 mL of isopropanol. Oil re 0 working solution is prepared by diluting a stock solution with water (6:4) followed by filtration.
Table II summarizes results obtained with different analogs of DPD (SN1), “0” representing similar results to DPD, “−1” representing even less adipocyte differentiation, “+1” representing more adipocyte differentiation (both relative to DPD) and “−” meaning not assayed.

O=C(O)CC/C=C\CC1COC(c2ccccc2Cl)OC1c1ccccc1O (racemic) [SN1, (Z)-6-(-2-(2-chlorophenyl)-4-(2-hydroxyphenyl)-1,3-dioxan-5-yl)hex-4-enoic acid]
activation of full-length hPPARg2, % of the Avandia positive control [1]: 64% | red staining (Oil Red O) in the induction assay (MEFs / 3T3-L1): very little red staining
